US11319305B2, “Pyrimidine sulfamide derivative and preparation method and medical application thereof” (SHIJIAZHUANG SAGACITY NEW DRUG DEVELOPMENT CO., LTD., priority 2017, dated 2022)

How the values were obtained:
human ETA receptor = biological target: T1, human ETA receptor (Homo sapiens, UniProt P25101); experiment: In vitro antagonistic effect against human ETA receptor, Ca2+ signal in SK-N-MC cells; type: cell-based; conditions: for IC50: SK-N-MC cells, response to 1 nM endothelin-1; for ETA/ETB selectivity: ratio of ETB IC50 to ETA IC50
T1 construct: endogenously expressed human ETA receptors in SK-N-MC cells; host or cells: SK-N-MC cells
T1 sequence (P25101 21-427): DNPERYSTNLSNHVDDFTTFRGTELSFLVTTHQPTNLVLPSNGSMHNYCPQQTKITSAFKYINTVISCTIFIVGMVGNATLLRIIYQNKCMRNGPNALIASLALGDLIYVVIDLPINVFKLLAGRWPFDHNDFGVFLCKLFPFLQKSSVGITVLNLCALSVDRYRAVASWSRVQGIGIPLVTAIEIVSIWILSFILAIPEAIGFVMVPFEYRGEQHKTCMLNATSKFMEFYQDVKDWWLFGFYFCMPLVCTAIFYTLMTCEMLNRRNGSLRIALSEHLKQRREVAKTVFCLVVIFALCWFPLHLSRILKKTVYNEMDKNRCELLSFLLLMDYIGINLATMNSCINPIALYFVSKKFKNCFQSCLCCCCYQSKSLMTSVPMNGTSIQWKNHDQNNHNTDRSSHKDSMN
Experimental: Experimental Embodiment 1: In Vitro Test of Antagonistic Effect Against Human ETA Receptor
Antagonistic activity of the compounds against endogenously expressed human ETA receptors in SK-N-MC cells was evaluated by measuring the effect of compounds on the changes in cytoplasmic Ca^2+ ion signal induced by human ETA receptor agonists using fluorescence detection methods. The functional activity of the ETA receptor antagonistic effect was tested in Eurofins-Cerep SA according to current standard procedures.
1. Cells were suspended in Dulbecco's modified Eagle medium solution (DMEM, Invitrogen) supplemented with 1% FCSd, then distributed in 384-well plate (100 μL/well) at a density of 5×10^4 cells/well;
2. Probenecid in Hank's balanced salt solution (HBSS, Invitrogen) supplemented with 20 mM 4-(2-hydroxyethyl)piperazine-1-ethanesulfonic acid (Hepes, Invitrogen) (pH 7.4) was mixed with fluorescent probe (Fluo4 NW, Invitrogen), the mixture was added to each wells, then balanced with cells at 37° C. for 60 minutes, and then balanced with cells at 22° C. for 15 minutes;
(§1) 3. The test plate was placed in a microplate reader (CellLux, PerkinElmer), a DMSO solution or HBSS buffer with an appropriate concentration of the test compound and the positive control was added, and 1 nM endothelin-1 or HBSS buffer (base control) was added after 5 minutes, and then the change in fluorescence intensity proportional to the concentration of Ca^2+ ions of free […] was measured;
5. Standard positive control was BQ-123, several concentrations were tested in each experiments. The data was analyzed using Prism to generate a concentration-response curve, and IC50 values of the compounds were calculated.

human ETB receptor = biological target: T2, human ETB receptor (Homo sapiens, UniProt P24530); experiment: In vitro antagonistic effect against human ETB receptor, Ca2+ signal in transfected CHO cells; type: cell-based; conditions: response to 0.3 nM endothelin-1
T2 construct: host or cells: CHO cells
T2 sequence (P24530 27-442): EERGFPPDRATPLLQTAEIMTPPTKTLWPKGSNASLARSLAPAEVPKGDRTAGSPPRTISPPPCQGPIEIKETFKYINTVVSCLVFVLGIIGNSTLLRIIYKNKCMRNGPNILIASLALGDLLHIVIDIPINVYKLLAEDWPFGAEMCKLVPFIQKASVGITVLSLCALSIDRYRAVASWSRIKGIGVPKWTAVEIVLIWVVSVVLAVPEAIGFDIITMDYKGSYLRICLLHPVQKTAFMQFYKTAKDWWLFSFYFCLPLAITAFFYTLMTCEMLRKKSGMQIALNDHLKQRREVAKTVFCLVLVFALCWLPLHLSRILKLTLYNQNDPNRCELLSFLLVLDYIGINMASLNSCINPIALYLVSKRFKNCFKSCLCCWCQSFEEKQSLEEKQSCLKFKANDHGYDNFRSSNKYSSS
Experimental: Antagonist activity of the compound against human ETB receptors expressed in transfected CHO cells was evaluated by measuring the effect of the compound on the changes in the cytoplasmic Ca^2+ ion signal induced by human ETB receptor agonists. The functional activity of the ETB receptor antagonistic effect was tested in Eurofins-Cerep SA according to current standard procedures.
1. Cells were suspended in DMEM buffer (Invitrogen) and then distributed in 384-well plate (100 μL/well) at a density of 3×10^4 cells/well;
2. Probenecid in HBSS buffer (Invitrogen) supplemented with 20 mM Hepes (Invitrogen) (pH 7.4) was mixed with fluorescent probe (Fluo4 NW, Invitrogen), the mixture was added to each wells, then balanced with cells at 37° C. for 60 minutes, and then balanced with cells at 22° C. for 15 minutes;
as §1, with “and 0.3” for “and 1”
4. Results were shown as the percent inhibition of control response to 0.3 nM endothelin-1;
5. Standard positive control was BQ-788, several concentrations were tested in each experiments. The data was analyzed using Prism to generate a concentration-response curve, and IC50 values of the compounds were calculated.

Row | Structure (SMILES) | IC50 (human ETA receptor) [nM] | ETA/ETB selectivity (human ETA receptor) | IC50 (human ETB receptor) [nM]
1 | O=S(=O)(NCC1CCCO1)Nc1ncnc(OCCOc2ncc(Br)cn2)c1-c1ccc2c(c1)OCO2 (single isomer, unassigned) [WX023] | 0.32 | 46800 | 15000
2 | O=S(=O)(NCC1CCCO1)Nc1ncnc(OCCOc2ncc(Br)cn2)c1-c1ccc2c(c1)OCO2 (single isomer, unassigned) [WX024] | 0.25 | 26800 | 6700
3 | CCNS(=O)(=O)Nc1ncnc(OCCOc2ncc(Br)cn2)c1-c1ccc2scnc2c1 [WX002] | 2.8 | >107000 | > 300000
4 | O=S(=O)(NCC(F)(F)F)Nc1ncnc(OCCOc2ncc(Br)cn2)c1-c1ccc2scnc2c1 [WX003] | 2.6 | 27300 | 71000
5 | CCCCNS(=O)(=O)Nc1ncnc(OCCOc2ncc(Br)cn2)c1-c1ccc2scnc2c1 [WX004] | 1.5 | 14000 | 21000
6 | CCCOCCNS(=O)(=O)Nc1ncnc(OCCOc2ncc(Br)cn2)c1-c1ccc2scnc2c1 [WX006] | 1.3 | >230700 | > 300000
7 | COCCCNS(=O)(=O)Nc1ncnc(OCCOc2ncc(Br)cn2)c1-c1ccc2scnc2c1 [WX007] | 2.1 | 16600 | 35000
8 | CCCNS(=O)(=O)Nc1ncnc(OCCOc2ncc(Br)cn2)c1-c1ccc2c(c1)OCO2 [WX008] | 0.43 | 651100 | 280000
9 | CCNS(=O)(=O)Nc1ncnc(OCCOc2ncc(Br)cn2)c1-c1ccc2c(c1)OCO2 [WX009] | 2.3 | 30800 | 71000
10 | O=S(=O)(NCC(F)(F)F)Nc1ncnc(OCCOc2ncc(Br)cn2)c1-c1ccc2c(c1)OCO2 [WX010] | 1.5 | 40600 | 61000
11 | O=S(=O)(Nc1ncnc(OCCOc2ncc(Br)cn2)c1-c1ccc2c(c1)OCO2)NC1CCC1 [WX011] | 1 | 22000 | 22000
12 | CCCCNS(=O)(=O)Nc1ncnc(OCCOc2ncc(Br)cn2)c1-c1ccc2c(c1)OCO2 [WX012] | 0.17 | 94100 | 16000
13 | O=S(=O)(NCC1CC1)Nc1ncnc(OCCOc2ncc(Br)cn2)c1-c1ccc2c(c1)OCO2 [WX014] | 1.3 | 26900 | 35000
14 | CCOCCNS(=O)(=O)Nc1ncnc(OCCOc2ncc(Br)cn2)c1-c1ccc2c(c1)OCO2 [WX015] | 0.86 | >348800 | > 300000
15 | CCCOCCNS(=O)(=O)Nc1ncnc(OCCOc2ncc(Br)cn2)c1-c1ccc2c(c1)OCO2 [WX016] | 0.79 | 27800 | 22000
16 | COCCCNS(=O)(=O)Nc1ncnc(OCCOc2ncc(Br)cn2)c1-c1ccc2c(c1)OCO2 [WX017] | 0.45 | 35500 | 16000
17 | CCOCCCNS(=O)(=O)Nc1ncnc(OCCOc2ncc(Br)cn2)c1-c1ccc2c(c1)OCO2 [WX018] | 0.76 | 12600 | 9600
18 | O=S(=O)(NCC1CCOCC1)Nc1ncnc(OCCOc2ncc(Br)cn2)c1-c1ccc2c(c1)OCO2 [WX019] | 0.44 | >68100 | > 30000
19 | O=S(=O)(NCC1CCC1)Nc1ncnc(OCCOc2ncc(Br)cn2)c1-c1ccc2c(c1)OCO2 [WX020] | 0.35 | 48500 | 17000
20 | O=S(=O)(NCC1CCCO1)Nc1ncnc(OCCOc2ncc(Br)cn2)c1-c1ccc2c(c1)OCO2 (stereo not drawn) [WX021] | 0.34 | 135200 | 46000
21 | CS(=O)(=O)CCNS(=O)(=O)Nc1ncnc(OCCOc2ncc(Br)cn2)c1-c1ccc2c(c1)OCO2 [WX022] | 2.1 | 36100 | 76000
22 | CCCCNS(=O)(=O)Nc1ncnc(OCCOc2ncc(Br)cn2)c1-c1ccc2ccnn2c1 [WX026] | 1.1 | 66300 | 73000
23 | O=S(=O)(NCC1CC1)Nc1ncnc(OCCOc2ncc(Br)cn2)c1-c1ccc2ccnn2c1 [WX027] | 2.8 | 24200 | 68000
24 | O=S(=O)(Nc1ncnc(OCCOc2ncc(Br)cn2)c1-c1ccc2c(c1)OCC2)N1CCC2(CC1)CC2 [WX028] | 2 | >50000 | > 100000
25 | CCCNS(=O)(=O)Nc1ncnc(OCCOc2ncc(Br)cn2)c1-c1ccc2c(c1)OCC2 [WX029] | 0.65 | 24600 | 16000
26 | COCCNS(=O)(=O)Nc1ncnc(OCCOc2ncc(Br)cn2)c1-c1ccc2c(c1)OCC2 [WX030] | 1.3 | 25300 | 33000
27 | O=S(=O)(Nc1ncnc(OCCOc2ncc(Br)cn2)c1-c1ccc2c(c1)OCC2)N1C[C@H]2C[C@H]2C1 [WX031] | 1.1 | >90900 | > 100000
28 | O=S(=O)(Nc1ncnc(OCCOc2ncc(Br)cn2)c1-c1ccc2c(c1)OCC2)N1CC2(COC2)C1 [WX032] | 3 | >10000 | > 30000
29 | CCCNS(=O)(=O)Nc1ncnc(OCCOc2ncc(Br)cn2)c1-c1ccc2c(c1)CCO2 [WX033] | 1.6 | >18700 | > 30000
30 | COCCNS(=O)(=O)Nc1ncnc(OCCOc2ncc(Br)cn2)c1-c1ccc2c(c1)CCO2 [WX034] | 3.6 | 55500 | 200000
